Experimental data published in ChEMBL document CHEMBL1201862, “PubChem BioAssay data set” (2004).
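Briefly, cells in 96-well plates were exposed to five compound concentrations for 48 h, and endpoints were estimated by linear interpolation. GI50: concentration for 50% inhibition of growth.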 The source made the active and inactive calls. No stated cut-off is given here; in the data, active = GI50 up to about 1.1 µM and inactive = higher.

How the values were obtained:
Assay in all cases: DTP human tumour cell line panel, 48 h
SK-OV-3 = test system: SK-OV-3
NCI-H226 = test system: NCI-H226
SK-MEL-5 = test system: SK-MEL-5
HT-29 = test system: HT-29
SK-MEL-2 = test system: SK-MEL-2
XF498 = test system: XF498
SNB-78 = test system: SNB-78
MCF7 = test system: MCF7
HOP-18 = test system: HOP-18
DMS-114 = test system: DMS-114
U-251 = test system: U-251
M19-MEL = test system: M19-MEL
NCI/ADR-RES = test system: NCI/ADR-RES
EKVX = test system: EKVX
SF-268 = test system: SF-268
NCI-H23 = test system: NCI-H23

Measured: GI50

Nc1[nH]cnc2ncnc1-2 [ADENINE]
inactive: SK-OV-3 > 250 µM | NCI-H226 111 µM | SK-MEL-5 > 96.6 µM | HT-29 > 121 µM | SK-MEL-2 > 250 µM | XF498 9.4 µM | SNB-78 114 µM | MCF7 > 21.3 µM | HOP-18 109 µM | DMS-114 84.1 µM | U-251 108 µM | M19-MEL > 141 µM | NCI/ADR-RES 46.2 µM

Cc1c2c(cc3c1[nH]c1ccccc13)C=NCC2
inactive: SK-OV-3 46.8 µM | NCI-H226 20.7 µM | EKVX 33 µM | SK-MEL-5 6.41 µM | SF-268 16.8 µM | HT-29 14.2 µM | SK-MEL-2 10.1 µM | XF498 7.14 µM | SNB-78 19.7 µM | MCF7 2.92 µM | HOP-18 9.62 µM | DMS-114 6.9 µM | U-251 13.4 µM | NCI-H23 19.7 µM | M19-MEL 11.1 µM | NCI/ADR-RES 12.2 µM
